# From patent US10472315B2, “Inhibitors of methionine aminopeptidases and methods of treating disorders” (THE JOHNS HOPKINS UNIVERSITY, priority 2009, dated 2019)
# Where “and” joins values, the source holds several entries; their conditions need not be identical. Equal values may be shown once. Entries after “also recorded” stand apart in the source; their conditions may differ.
# Tested on: Aged-cultured M. tuberculosis H37Ra
# Experiment: microbe, parasite or virus in culture
# Format: cell-based
# Details: not given
row,SMILES,effectiveness against the aged-cultured form compared with the replicating form
1,"O=C1C(Cl)=C(Cl)C(=O)c2ccccc21 [Compound 4, 2,3-dichloro-1,4-naphthoquinone]",equally effective
2,"O=C1C(Br)=C(Br)C(=O)c2ccccc21 [Compound 20, 2,3-dibromo-1,4-naphthoquinone]",equally effective

# Same assay, conditions: Mycobacterium tuberculosis, H37RA, read-out: M.I.C. (μg/mL) Aged-cultured M. tuberculosis
row,SMILES,MIC [µg/mL]
1,O=C1C(Cl)=C(N2C(=O)c3c(Cl)c(Cl)c(Cl)c(Cl)c3C2=O)C(=O)c2ccccc21 [Compound 2],23.8
2,O=C1C(Cl)=C(N2CCCCC2)C(=O)c2ccccc21 [Compound 3],> 27.6
3,"O=C1C(Cl)=C(Cl)C(=O)c2ccccc21 [Compound 4, 2,3-dichloro-1,4-naphthoquinone]",5.7 to 11.4

# Molecular target: T1, MtMetAP1a (Mycobacterium tuberculosis, UniProt P9WK21)
# T1 construct: made in house; host or cells: E. coli BL21 (DE3)
# T1 sequence (P9WK21 whole entry): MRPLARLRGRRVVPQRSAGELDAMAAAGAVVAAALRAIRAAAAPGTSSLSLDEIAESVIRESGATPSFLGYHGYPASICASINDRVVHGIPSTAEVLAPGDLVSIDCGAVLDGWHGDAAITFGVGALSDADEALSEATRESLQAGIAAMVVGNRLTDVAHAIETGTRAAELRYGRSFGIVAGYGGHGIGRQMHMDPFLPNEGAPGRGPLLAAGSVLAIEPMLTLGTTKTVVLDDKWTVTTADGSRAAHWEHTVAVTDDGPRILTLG
# Experiment: Coupled methionine-proline aminopeptidase assay (Met-Pro-pNA), IC50 determination
# Format: biochemical, M. tuberculosis
# Details: not given
# Procedure: (§1) Determination of IC50 of Inhibitors of MtMetAPs and Clustering of Structural Classes of Inhibitors (ASDI-ISIS)
# (§2) We determined the concentration needed for 50% inhibition in 96-well plates at final concentrations ranging from 100 μM-300 nM (for 81 compounds that were available in larger quantities). The total reaction volume was 50 μL and each reaction contained each MtMetAP1 respectively and 40 mM Hepes buffer (p.H 7.5), 100 mM NaCl, 100 μg/mL BSA, 0.1 U/mL ProAP, 1.5 μM CoCl2, 600 μM substrate (Met-Pro-pNA). The enzyme was pre-incubated with compounds for 20 min at room temperature followed by addition of substrate. The reaction was incubated at room temperature for 30 min and monitored at 405 nm on a spectrophotometer. The background hydrolysis was corrected and the data was fitted against the sigmoidal-dose response (variable slope) equation using GraphPad Prism software.
row,SMILES,IC50 [µM]
1,"O=C1C(Cl)=C(Cl)C(=O)c2ccccc21 [Compound 4, 2,3-dichloro-1,4-naphthoquinone]",3.3 ± 0.3

# Same assay, conditions: read-out: inhibitor of MtMetAP1a (potency in text)
row,SMILES,IC50 [µM]
1,ON=CNc1nc2c(s1)CCOc1cc3c(cc1-2)OCO3 [Amidoxime 58],0.76

# Same assay, conditions: recombinant enzyme, 1.5 μM CoCl2, 600 μM Met-Pro-pNA; read-out: IC50 (μM) MtMetAP1a
row,SMILES,IC50
1,O=C1C(Cl)=C(N2C(=O)c3c(Cl)c(Cl)c(Cl)c(Cl)c3C2=O)C(=O)c2ccccc21 [Compound 2],4 ± 0.3 µM
2,O=C1C(Cl)=C(N2CCCCC2)C(=O)c2ccccc21 [Compound 3],8 ± 1.3 µM
3,NC1=C(Cl)C(=O)c2ccccc2C1=O [Compound 5],> 100 µM
4,O=C1C(Cl)=C(NCc2ccc(Cl)cc2)C(=O)c2ccccc21 [Compound 6],> 100 µM
5,CN1CCN(C2=C(Cl)C(=O)c3ccccc3C2=O)CC1 [Compound 7],> 100 µM
6,O=C1C(Cl)=C(N2CCN(c3cccc(Cl)c3)CC2)C(=O)c2ccccc21 [Compound 8],> 100 µM
7,O=C1C(Cl)=C(N2CCN(c3ccc(Cl)c(Cl)c3)CC2)C(=O)c2ccccc21 [Compound 9],> 100 µM
8,Cc1ccc(Cl)cc1N1CCN(C2=C(Cl)C(=O)c3ccccc3C2=O)CC1 [Compound 10],> 100 µM
9,O=C1C(Cl)=C(Nc2cccc(C(F)(F)F)c2)C(=O)c2ccccc21 [Compound 12],> 30 µM
10,O=C1C(Cl)=C(Nc2cccc(F)c2)C(=O)c2ccccc21 [Compound 13],> 30 µM
11,COC(=O)c1ccc(NC2=C(Cl)C(=O)c3ccccc3C2=O)cc1 [Compound 14],> 30 µM
12,CN(C)c1ccc(NC2=C(Cl)C(=O)c3ccccc3C2=O)cc1 [Compound 15],> 30 µM
13,O=C1C(Cl)=C(Nc2ccccc2)C(=O)c2ccccc21 [Compound 16],> 50 µM
14,Cc1cccc(NC2=C(Cl)C(=O)c3ccccc3C2=O)c1 [Compound 17],18.6 ± 6.1 µM
15,COc1ccc(NC2=C(Cl)C(=O)c3ccccc3C2=O)cc1 [Compound 18],15.9 ± 0.6 µM
16,Cc1cc(C)cc(NC2=C(Cl)C(=O)c3ccccc3C2=O)c1 [Compound 19],13.9 ± 1 µM
17,"O=C1C(Br)=C(Br)C(=O)c2ccccc21 [Compound 20, 2,3-dibromo-1,4-naphthoquinone]",~1 µM and 1.14 µM
18,O=C1C(Oc2ccc(F)cc2)=C(Oc2ccc(F)cc2)C(=O)c2ccccc21 [Compound 21],4.93 ± 0.2 µM
19,O=C1C(Cl)=C(Oc2ccc(F)cc2)C(=O)c2ccccc21 [Compound 22],7.58 ± 0.28 µM
20,O=C1C=CC(=O)c2c(O)cccc21 [Compound 23],> 50 µM
21,CC1=CC(=O)c2c(O)cccc2C1=O [Compound 24],> 50 µM
22,O=C1C=C(O)C(=O)c2ccccc21 [Compound 25],> 50 µM
23,CCCN(CCC)C1=C(Cl)C(=O)c2ccccc2C1=O [Compound 26],> 50 µM
24,O=C(NC1=C(Cl)C(=O)c2ccccc2C1=O)c1cc(C(F)(F)F)cc(C(F)(F)F)c1 [Compound 27],> 50 µM
25,CC1=C(C/C=C(\C)CCCC(C)CCCC(C)C)C(=O)c2ccccc2C1=O (centres unmarked) [Compound 28],> 50 µM
26,CC1=CC(=O)c2ccccc2C1=O [Compound 29],> 50 µM

# Same assay, conditions: relative to amidoxime 48
row,SMILES,"improvement over the lead-like hit 48, MtMetAP1a [fold]"
1,ON=CNc1nc2c(s1)CCOc1cc3c(cc1-2)OCO3 [Amidoxime 58],48

# Same assay, conditions: statement on MtMetAPs / both enzymes
row,SMILES,"inhibition of MtMetAP1a, in words"
1,ON=CNc1nc2c(s1)CCOc1cc3c(cc1-2)OCO3 [Amidoxime 58],very potent
2,"Oc1c(Br)cc(Cl)c2cccnc12 [Compound 69, 7-bromo-5-chloroquinolin-8-ol]",low micromolar range; also recorded: most potent

# Molecular target: T2, MtMetAP1c (Mycobacterium tuberculosis, UniProt P9WK19)
# T2 construct: made in house; host or cells: E. coli BL21
# T2 sequence (P9WK19 whole entry): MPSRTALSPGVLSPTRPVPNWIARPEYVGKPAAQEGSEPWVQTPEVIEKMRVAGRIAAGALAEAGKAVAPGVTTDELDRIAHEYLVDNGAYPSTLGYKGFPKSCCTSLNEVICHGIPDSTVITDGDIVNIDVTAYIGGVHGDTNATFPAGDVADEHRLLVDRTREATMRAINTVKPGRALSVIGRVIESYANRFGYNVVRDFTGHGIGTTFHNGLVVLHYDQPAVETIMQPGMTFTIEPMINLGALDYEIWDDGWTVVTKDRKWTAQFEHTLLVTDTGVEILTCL
# Experiment: as above
# Format: biochemical, M. tuberculosis
# Details: not given
# Procedure: as §1, §2
row,SMILES,IC50 [µM]
1,"O=C1C(Cl)=C(Cl)C(=O)c2ccccc21 [Compound 4, 2,3-dichloro-1,4-naphthoquinone]",6.6 ± 1.2

# Same assay, conditions: read-out: inhibitor of MtMetAP1c (potency in text)
row,SMILES,IC50 [µM]
1,ON=CNc1nc2c(s1)CCOc1cc3c(cc1-2)OCO3 [Amidoxime 58],0.06

# Same assay, conditions: recombinant enzyme, 1.5 μM CoCl2, 600 μM Met-Pro-pNA; read-out: IC50 (μM) MtMetAP1c
row,SMILES,IC50
1,"O=C1C(Br)=C(Br)C(=O)c2ccccc21 [Compound 20, 2,3-dibromo-1,4-naphthoquinone]",~1 µM and 0.71 µM

# Same assay, conditions: relative to amidoxime 48
SMILES,potency against MtMetAP1c when compared to 48,"improvement over the lead-like hit 48, MtMetAP1c [fold]"
"COc1ccc2c(c1)-c1nc(NC=NO)sc1CC2 [Amidoxime 49, N′-hydroxy-N-(8-methoxy-4,5-dihydronaphtho[1,2-d]thiazol-2-yl)formimidamide]",two times less potent,–
ON=CNc1nc2c(s1)CCOc1cc3c(cc1-2)OCO3 [Amidoxime 58],–,7

# Same assay, conditions: statement on MtMetAPs / both enzymes
row,SMILES,"inhibition of MtMetAP1c, in words"
1,ON=CNc1nc2c(s1)CCOc1cc3c(cc1-2)OCO3 [Amidoxime 58],very potent
2,"Oc1c(Br)cc(Cl)c2cccnc12 [Compound 69, 7-bromo-5-chloroquinolin-8-ol]",low micromolar range; also recorded: most potent

# Tested on: M. tuberculosis H37Rv
# Experiment: Minimum inhibitory concentration in replicating M. tuberculosis
# Format: cell-based
# Details: not given
SMILES,increase in MIC values relative to compounds 4 and 20,M.I.C. (μg/mL) M. tuberculosis [µg/mL]
O=C1C(Cl)=C(N2C(=O)c3c(Cl)c(Cl)c(Cl)c(Cl)c3C2=O)C(=O)c2ccccc21 [Compound 2],about a two-fold increase,–
"O=C1C(Cl)=C(Cl)C(=O)c2ccccc21 [Compound 4, 2,3-dichloro-1,4-naphthoquinone]",–,10
O=C1C(Oc2ccc(F)cc2)=C(Oc2ccc(F)cc2)C(=O)c2ccccc21 [Compound 21],about a two-fold increase,–
O=C1C(Cl)=C(Oc2ccc(F)cc2)C(=O)c2ccccc21 [Compound 22],about a two-fold increase,–

# Same assay, conditions: Mycobacterium tuberculosis, H37RV, 336 h; read-out: M.I.C. (μg/mL) M. tuberculosis
row,SMILES,MIC [µg/mL]
1,O=C1C(Cl)=C(N2C(=O)c3c(Cl)c(Cl)c(Cl)c(Cl)c3C2=O)C(=O)c2ccccc21 [Compound 2],25
2,O=C1C(Cl)=C(N2CCCCC2)C(=O)c2ccccc21 [Compound 3],> 25
3,"O=C1C(Cl)=C(Cl)C(=O)c2ccccc21 [Compound 4, 2,3-dichloro-1,4-naphthoquinone]",10
4,"O=C1C(Br)=C(Br)C(=O)c2ccccc21 [Compound 20, 2,3-dibromo-1,4-naphthoquinone]",10 to 25
5,O=C1C(Oc2ccc(F)cc2)=C(Oc2ccc(F)cc2)C(=O)c2ccccc21 [Compound 21],> 25
6,O=C1C(Cl)=C(Oc2ccc(F)cc2)C(=O)c2ccccc21 [Compound 22],> 25
